Experiments:
Experiment in all cases: relative viability (nuclei count vs DMSO), 5 days (fraction); higher = more cells survive
NCI-H3122 = tested on: NCI-H3122
Method in brief: (§1)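 Relative viability equals treated-well nuclei counts divided by vehicle-well nuclei counts. Counts came from 4× images of lung cancer cell lines grown in 1536-well plates for 5 days after pin-tool dosing on the day after seeding. Dosing used one drug alone or a fixed anchor-drug dose plus five library-drug doses (not always all listed) in √10 steps, and values are medians of duplicate plates.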

NCI-H727 = tested on: NCI-H727
Method in brief: as §1

NCI-H838 = tested on: NCI-H838
Method in brief: as §1

NCI-H23 = tested on: NCI-H23
Method in brief: as §1

NCI-H1993 = tested on: NCI-H1993
Method in brief: as §1

EMC-BAC-2 = tested on: EMC-BAC-2
Method in brief: as §1

NCI-H596 = tested on: NCI-H596
Method in brief: as §1

NCI-H647 = tested on: NCI-H647
Method in brief: as §1

LCLC-103H = tested on: LCLC-103H
Method in brief: as §1

BEN = tested on: BEN
Method in brief: as §1

NCI-H2087 = tested on: NCI-H2087
Method in brief: as §1

NCI-H441 = tested on: NCI-H441
Method in brief: as §1

NCI-H2347 = tested on: NCI-H2347
Method in brief: as §1

HCC-44 = tested on: HCC-44
Method in brief: as §1

NCI-H2126 = tested on: NCI-H2126
Method in brief: as §1

NCI-H2023 = tested on: NCI-H2023
Method in brief: as §1

NCI-H650 = tested on: NCI-H650
Method in brief: as §1

201T = tested on: 201T
Method in brief: as §1

LOU-NH91 = tested on: LOU-NH91
Method in brief: as §1

HARA = tested on: HARA
Method in brief: as §1

Work on O=c1cc(N2CCOCC2)oc2c(-c3cccc4c3sc3ccccc34)cccc12 + C[C@@H](Oc1cc(-c2cnn(C3CCNCC3)c2)cnc1N)c1c(Cl)ccc(F)c1Cl [Crizotinib] (partner 1 µM) yielded a relative viability (NCI-H3122; first compound 0.01 µM) of 0.269, a relative viability (NCI-H3122; first compound 0.03162 µM) of 0.273 and a relative viability (NCI-H3122; first compound 0.1 µM) of 0.274. The relative viability (NCI-H3122; first compound 0.3162 µM) was 0.297, the relative viability (NCI-H3122; first compound 1 µM) was 0.284 and the relative viability (NCI-H727; first compound 0.01 µM) was 0.887. The relative viability (NCI-H727; first compound 0.03162 µM) was 0.893, the relative viability (NCI-H727; first compound 0.1 µM) was 0.751 and the relative viability (NCI-H727; first compound 0.3162 µM) was 0.734. It also gave a relative viability (NCI-H727; first compound 1 µM) of 0.932, a relative viability (NCI-H838; first compound 0.01 µM) of 0.876 and a relative viability (NCI-H838; first compound 0.03162 µM) of 0.77. For the same compound, the relative viability (NCI-H838; first compound 0.1 µM) was 0.849, the relative viability (NCI-H838; first compound 0.3162 µM) was 0.744 and the relative viability (NCI-H838; first compound 1 µM) was 0.787. The relative viability (NCI-H23; first compound 0.01 µM) was 0.59, the relative viability (NCI-H23; first compound 0.03162 µM) was 0.586 and the relative viability (NCI-H23; first compound 0.3162 µM) was 0.508. For the same compound, the relative viability (NCI-H23; first compound 1 µM) was 0.506, the relative viability (NCI-H1993; first compound 0.01 µM) was 0.858 and the relative viability (NCI-H1993; first compound 0.03162 µM) was 0.93. For the same compound, the relative viability (NCI-H1993; first compound 0.1 µM) was 0.928, the relative viability (NCI-H1993; first compound 0.3162 µM) was 0.862 and the relative viability (NCI-H1993; first compound 1 µM) was 0.943. It also gave a relative viability (EMC-BAC-2; first compound 0.01 µM) of 0.787, a relative viability (EMC-BAC-2; first compound 0.03162 µM) of 0.788 and a relative viability (EMC-BAC-2; first compound 0.1 µM) of 0.847. It also gave a relative viability (EMC-BAC-2; first compound 0.3162 µM) of 0.77, a relative viability (EMC-BAC-2; first compound 1 µM) of 0.735 and a relative viability (NCI-H596; first compound 0.01 µM) of 0.992. For the same compound, the relative viability (NCI-H596; first compound 0.03162 µM) was 0.997, the relative viability (NCI-H596; first compound 0.1 µM) was 0.907 and the relative viability (NCI-H596; first compound 0.3162 µM) was 0.948. The relative viability (NCI-H596; first compound 1 µM) was 0.882, the relative viability (NCI-H647; first compound 0.01 µM) was 1.12 and the relative viability (NCI-H647; first compound 0.03162 µM) was 1.23. For the same compound, the relative viability (NCI-H647; first compound 0.1 µM) was 1.08, the relative viability (NCI-H647; first compound 0.3162 µM) was 0.949 and the relative viability (NCI-H647; first compound 1 µM) was 0.939. It also gave a relative viability (LCLC-103H; first compound 0.01 µM) of 1.06, a relative viability (LCLC-103H; first compound 0.03162 µM) of 0.976 and a relative viability (LCLC-103H; first compound 0.1 µM) of 1.12. The relative viability (LCLC-103H; first compound 0.3162 µM) was 0.958, the relative viability (LCLC-103H; first compound 1 µM) was 1.07 and the relative viability (BEN; first compound 0.01 µM) was 0.853. It also gave a relative viability (BEN; first compound 0.03162 µM) of 0.892, a relative viability (BEN; first compound 0.1 µM) of 0.877 and a relative viability (BEN; first compound 0.3162 µM) of 0.951. It also gave a relative viability (BEN; first compound 1 µM) of 0.893, a relative viability (NCI-H2087; first compound 0.01 µM) of 0.884 and a relative viability (NCI-H2087; first compound 0.03162 µM) of 1.07. It also gave a relative viability (NCI-H2087; first compound 0.1 µM) of 0.84, a relative viability (NCI-H2087; first compound 0.3162 µM) of 0.682 and a relative viability (NCI-H2087; first compound 1 µM) of 0.838. It also gave a relative viability (NCI-H441; first compound 0.01 µM) of 0.841, a relative viability (NCI-H441; first compound 0.03162 µM) of 0.785 and a relative viability (NCI-H441; first compound 0.1 µM) of 1.09. It also gave a relative viability (NCI-H441; first compound 0.3162 µM) of 0.679, a relative viability (NCI-H441; first compound 1 µM) of 0.756 and a relative viability (NCI-H2347; first compound 0.01 µM) of 0.805. For the same compound, the relative viability (NCI-H2347; first compound 0.03162 µM) was 0.661, the relative viability (NCI-H2347; first compound 0.1 µM) was 0.739 and the relative viability (NCI-H2347; first compound 0.3162 µM) was 0.584. The relative viability (NCI-H2347; first compound 1 µM) was 0.76, the relative viability (HCC-44; first compound 0.01 µM) was 0.862 and the relative viability (HCC-44; first compound 0.03162 µM) was 0.811. For the same compound, the relative viability (HCC-44; first compound 0.1 µM) was 0.814, the relative viability (HCC-44; first compound 0.3162 µM) was 0.788 and the relative viability (HCC-44; first compound 1 µM) was 0.776. It also gave a relative viability (NCI-H2126; first compound 0.01 µM) of 1.04, a relative viability (NCI-H2126; first compound 0.03162 µM) of 1.01 and a relative viability (NCI-H2126; first compound 0.1 µM) of 1.01. The relative viability (NCI-H2126; first compound 0.3162 µM) was 0.944, the relative viability (NCI-H2126; first compound 1 µM) was 0.955 and the relative viability (NCI-H2023; first compound 0.01 µM) was 0.574. The relative viability (NCI-H2023; first compound 0.03162 µM) was 0.589, the relative viability (NCI-H2023; first compound 0.1 µM) was 0.663 and the relative viability (NCI-H2023; first compound 0.3162 µM) was 0.616. It also gave a relative viability (NCI-H2023; first compound 1 µM) of 0.586, a relative viability (NCI-H650; first compound 0.01 µM) of 0.738 and a relative viability (NCI-H650; first compound 0.03162 µM) of 0.82. It also gave a relative viability (NCI-H650; first compound 0.3162 µM) of 0.868, a relative viability (NCI-H650; first compound 1 µM) of 0.587 and a relative viability (201T; first compound 0.01 µM) of 1. It also gave a relative viability (201T; first compound 0.03162 µM) of 1.01, a relative viability (201T; first compound 0.1 µM) of 0.981 and a relative viability (201T; first compound 0.3162 µM) of 1.01. The relative viability (201T; first compound 1 µM) was 1.03, the relative viability (LOU-NH91; first compound 0.01 µM) was 0.705 and the relative viability (LOU-NH91; first compound 0.03162 µM) was 0.695. For the same compound, the relative viability (LOU-NH91; first compound 0.1 µM) was 0.717, the relative viability (LOU-NH91; first compound 0.3162 µM) was 0.738 and the relative viability (LOU-NH91; first compound 1 µM) was 0.698. It also gave a relative viability (HARA; first compound 0.01 µM) of 0.996, a relative viability (HARA; first compound 0.03162 µM) of 1.05 and a relative viability (HARA; first compound 0.1 µM) of 1.26. It also gave a relative viability (HARA; first compound 0.3162 µM) of 1.13 and a relative viability (HARA; first compound 1 µM) of 0.988.

Source: the supplement of paper PMC10307832
